Experimental data reported in PubChem BioAssay (NCI).
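Abbreviation: GI50, concentration required for 50% inhibition of growth. Definition used: TGI = concentration required for complete inhibition of growth.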

Tests used:
Experiment in all cases: inhibition of tumour cell growth, NCI panel, 384-well format
786-0 renal = tested on: 786-0 renal
A498 renal = tested on: A498 renal
A549 NSCLC = tested on: A549 NSCLC
ACHN renal = tested on: ACHN renal
BT-549 breast = tested on: BT-549 breast
CAKI-1 renal = tested on: CAKI-1 renal
CCRF-CEM leukemia = tested on: CCRF-CEM leukemia
COLO 205 colon = tested on: COLO 205 colon
DU-145 prostate = tested on: DU-145 prostate
EKVX NSCLC = tested on: EKVX NSCLC
HCC-2998 colon = tested on: HCC-2998 colon
HCT-116 colon = tested on: HCT-116 colon
HCT-15 colon = tested on: HCT-15 colon
HL-60(TB) leukemia = tested on: HL-60(TB) leukemia
HOP-62 NSCLC = tested on: HOP-62 NSCLC
HOP-92 NSCLC = tested on: HOP-92 NSCLC
HS 578T breast = tested on: HS 578T breast
HT29 colon = tested on: HT29 colon
IGROV1 ovarian = tested on: IGROV1 ovarian
K-562 leukemia = tested on: K-562 leukemia
KM12 colon = tested on: KM12 colon
LOX IMVI melanoma = tested on: LOX IMVI melanoma
M14 melanoma = tested on: M14 melanoma
MALME-3M melanoma = tested on: MALME-3M melanoma
MCF7 breast = tested on: MCF7 breast
MDA-MB-435 melanoma = tested on: MDA-MB-435 melanoma
MDA-MB-468 breast = tested on: MDA-MB-468 breast
MOLT-4 leukemia = tested on: MOLT-4 leukemia
NCI-H226 lung = tested on: NCI-H226 lung
NCI-H23 lung = tested on: NCI-H23 lung
NCI-H322M lung = tested on: NCI-H322M lung
NCI-H460 NSCLC = tested on: NCI-H460 NSCLC
NCI-H522 lung = tested on: NCI-H522 lung
NCI/ADR-RES ovarian = tested on: NCI/ADR-RES ovarian
OVCAR-3 ovarian = tested on: OVCAR-3 ovarian
OVCAR-4 ovarian = tested on: OVCAR-4 ovarian
OVCAR-8 ovarian = tested on: OVCAR-8 ovarian
PC-3 prostate = tested on: PC-3 prostate
RPMI-8226 leukemia = tested on: RPMI-8226 leukemia
RXF 393 renal = tested on: RXF 393 renal
SF-268 CNS = tested on: SF-268 CNS
SF-295 CNS = tested on: SF-295 CNS
SF-539 CNS = tested on: SF-539 CNS
SK-MEL-2 melanoma = tested on: SK-MEL-2 melanoma
SK-MEL-28 melanoma = tested on: SK-MEL-28 melanoma
SK-MEL-5 melanoma = tested on: SK-MEL-5 melanoma
SK-OV-3 ovarian = tested on: SK-OV-3 ovarian
SN12C renal = tested on: SN12C renal
SNB-19 CNS = tested on: SNB-19 CNS
SNB-75 CNS = tested on: SNB-75 CNS
SW-620 colon = tested on: SW-620 colon
TK-10 renal = tested on: TK-10 renal
U251 glioblastoma = tested on: U251 glioblastoma
UACC-257 melanoma = tested on: UACC-257 melanoma
UACC-62 melanoma = tested on: UACC-62 melanoma

CC/C(=C(\c1ccccc1)c1ccc(OCCNC)cc1)c1ccccc1
GI50 ([…]-0 renal): 1790 nM | TGI (786-0 renal): 3200 nM | GI50 (A498 renal): 1720 nM | TGI (A498 renal): 3100 nM | GI50 (A549 NSCLC): 1710 nM | TGI (A549 NSCLC): 3160 nM | GI50 (ACHN renal): 1850 nM | TGI (ACHN renal): 3300 nM | GI50 (BT-549 breast): 1820 nM | TGI (BT-549 breast): 3260 nM | GI50 (CAKI-1 renal): 1530 nM | TGI (CAKI-1 renal): 2920 nM | GI50 (CCRF-CEM leukemia): 1730 nM | TGI (CCRF-CEM leukemia): 3130 nM | GI50 (COLO 205 colon): 1940 nM | TGI (COLO 205 colon): 3400 nM | GI50 (DU-145 prostate): 2260 nM | TGI (DU-145 prostate): 4240 nM | GI50 (EKVX NSCLC): 1920 nM | TGI (EKVX NSCLC): 3670 nM | GI50 (HCC-2998 colon): 1660 nM | TGI (HCC-2998 colon): 3040 nM | GI50 (HCT-116 colon): 1970 nM | TGI (HCT-116 colon): 3450 nM | GI50 (HCT-15 colon): 1820 nM | TGI (HCT-15 colon): 3270 nM | GI50 (HL-60(TB) leukemia): 1580 nM | TGI (HL-60(TB) leukemia): 2940 nM | GI50 (HOP-62 NSCLC): 2350 nM | TGI (HOP-62 NSCLC): 3830 nM | GI50 (HOP-92 NSCLC): 2050 nM | TGI (HOP-92 NSCLC): 3510 nM | GI50 (HS 578T breast): 1900 nM | TGI (HS 578T breast): 3320 nM | GI50 (HT29 colon): 1770 nM | TGI (HT29 colon): 3190 nM | GI50 (IGROV1 ovarian): 1860 nM | TGI (IGROV1 ovarian): 3350 nM | GI50 (K-562 leukemia): 1830 nM | TGI (K-562 leukemia): 3250 nM | GI50 (KM12 colon): 1990 nM | TGI (KM12 colon): 3470 nM | GI50 (LOX IMVI melanoma): 1790 nM | TGI (LOX IMVI melanoma): 3210 nM | GI50 (M14 melanoma): 2070 nM | TGI (M14 melanoma): 3520 nM | GI50 (MALME-3M melanoma): 2150 nM | TGI (MALME-3M melanoma): 3610 nM | GI50 (MCF7 breast): 1200 nM | TGI (MCF7 breast): 2610 nM | GI50 (MDA-MB-435 melanoma): 2060 nM | TGI (MDA-MB-435 melanoma): 3500 nM | GI50 (MDA-MB-468 breast): 2390 nM | TGI (MDA-MB-468 breast): 3870 nM | GI50 (MOLT-4 leukemia): 1490 nM | TGI (MOLT-4 leukemia): 2820 nM | GI50 (NCI-H226 lung): 2150 nM | TGI (NCI-H226 lung): 4650 nM | GI50 (NCI-H23 lung): 2130 nM | TGI (NCI-H23 lung): 3670 nM | GI50 (NCI-H322M lung): 2160 nM | TGI (NCI-H322M lung): 3700 nM | GI50 (NCI-H460 NSCLC): 1980 nM | TGI (NCI-H460 NSCLC): 3510 nM | GI50 (NCI-H522 lung): 1930 nM | TGI (NCI-H522 lung): 3360 nM | GI50 (NCI/ADR-RES ovarian): 2200 nM | TGI (NCI/ADR-RES ovarian): 3910 nM | GI50 (OVCAR-3 ovarian): 1920 nM | TGI (OVCAR-3 ovarian): 3400 nM | GI50 (OVCAR-4 ovarian): 2100 nM | TGI (OVCAR-4 ovarian): 3680 nM | GI50 (OVCAR-8 ovarian): 1860 nM | TGI (OVCAR-8 ovarian): 3320 nM | GI50 (PC-3 prostate): 1970 nM | TGI (PC-3 prostate): 3480 nM | GI50 (RPMI-8226 leukemia): 2290 nM | TGI (RPMI-8226 leukemia): 3760 nM | GI50 (RXF 393 renal): 2020 nM | TGI (RXF 393 renal): 3470 nM | GI50 (SF-268 CNS): 2360 nM | TGI (SF-268 CNS): 3930 nM | GI50 (SF-295 CNS): 1880 nM | TGI (SF-295 CNS): 3300 nM | GI50 (SF-539 CNS): 2100 nM | TGI (SF-539 CNS): 3560 nM | GI50 (SK-MEL-2 melanoma): 1860 nM | TGI (SK-MEL-2 melanoma): 3280 nM | GI50 (SK-MEL-28 melanoma): 2070 nM | TGI (SK-MEL-28 melanoma): 3520 nM | GI50 (SK-MEL-5 melanoma): 1690 nM | TGI (SK-MEL-5 melanoma): 3080 nM | GI50 (SK-OV-3 ovarian): 1870 nM | TGI (SK-OV-3 ovarian): 3300 nM | GI50 (SN12C renal): 1850 nM | TGI (SN12C renal): 3420 nM | GI50 (SNB-19 CNS): 2140 nM | TGI (SNB-19 CNS): 3640 nM | GI50 (SNB-75 CNS): 2060 nM | TGI (SNB-75 CNS): 3550 nM | GI50 (SW-620 colon): 1980 nM | TGI (SW-620 colon): 3460 nM | GI50 (TK-10 renal): 2120 nM | TGI (TK-10 renal): 4070 nM | GI50 (U251 glioblastoma): 2160 nM | TGI (U251 glioblastoma): 3640 nM | GI50 (UACC-257 melanoma): 2300 nM | TGI (UACC-257 melanoma): 3770 nM | GI50 (UACC-62 melanoma): 2160 nM | TGI (UACC-62 melanoma): 3630 nM
